Here are results for eight molecules from patent publication US10266496B2, “Carboxy substituted (hetero) aromatic ring derivatives and preparation method and uses thereof” (SUNSHINE LAKE PHARMA CO., LTD., priority 2015, dated 2019).

The target in one series is hURAT1 (Homo sapiens (Human), UniProt Q96S37). In words: URAT1 (urate anion transporter) inhibition activity assay: [8-14C] uric acid absorption inhibition in HEK293T cell line stably expressing hURAT1. In kind it is cell-based. Conditions: [8-14C] uric acid uptake, HEK293T cells stably expressing hURAT1. The text has this: Inhibition ratio (%)=[1−(^14C uptaken by drug well−^14C uptaken by negative well)/(^14C uptaken by buffer well−^14C uptaken by negative well)]×100;
Sequence of hURAT1 (Q96S37 whole entry): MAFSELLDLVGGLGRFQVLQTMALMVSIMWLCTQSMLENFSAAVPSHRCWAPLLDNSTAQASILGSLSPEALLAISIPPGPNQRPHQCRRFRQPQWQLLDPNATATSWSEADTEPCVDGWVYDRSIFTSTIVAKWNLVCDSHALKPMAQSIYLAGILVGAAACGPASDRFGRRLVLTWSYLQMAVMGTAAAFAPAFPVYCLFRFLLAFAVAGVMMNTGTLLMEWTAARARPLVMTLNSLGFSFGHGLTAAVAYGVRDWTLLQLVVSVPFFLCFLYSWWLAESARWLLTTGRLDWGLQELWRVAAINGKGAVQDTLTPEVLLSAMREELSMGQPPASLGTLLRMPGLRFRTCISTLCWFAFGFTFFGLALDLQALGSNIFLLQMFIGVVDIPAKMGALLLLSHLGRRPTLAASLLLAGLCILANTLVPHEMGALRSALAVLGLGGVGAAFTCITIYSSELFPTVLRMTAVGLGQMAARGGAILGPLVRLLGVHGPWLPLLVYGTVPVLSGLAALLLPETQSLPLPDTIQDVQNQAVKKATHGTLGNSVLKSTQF
Wherein, the negative well was unvaccinated cell line […].

The target of a further series is xanthine oxidase (Homo sapiens (Human), UniProt P47989). The series is described as follows: XO (Xanthine Oxidase) inhibition activity assay. In kind it is biochemical. The following applies: substrate xanthine, absorbance at 290 nm. The procedure: Then the diluted solution was added to a 384 well plate at 30 μL/well, and then to each well was added 30 μL of 21 mU/mL xanthine oxidase. […] After being incubated at room temperature for 5 min, absorbance at 290 nm was read by using PHERAstar FS microplate reader.
Sequence of xanthine oxidase (P47989 whole entry, species assumed): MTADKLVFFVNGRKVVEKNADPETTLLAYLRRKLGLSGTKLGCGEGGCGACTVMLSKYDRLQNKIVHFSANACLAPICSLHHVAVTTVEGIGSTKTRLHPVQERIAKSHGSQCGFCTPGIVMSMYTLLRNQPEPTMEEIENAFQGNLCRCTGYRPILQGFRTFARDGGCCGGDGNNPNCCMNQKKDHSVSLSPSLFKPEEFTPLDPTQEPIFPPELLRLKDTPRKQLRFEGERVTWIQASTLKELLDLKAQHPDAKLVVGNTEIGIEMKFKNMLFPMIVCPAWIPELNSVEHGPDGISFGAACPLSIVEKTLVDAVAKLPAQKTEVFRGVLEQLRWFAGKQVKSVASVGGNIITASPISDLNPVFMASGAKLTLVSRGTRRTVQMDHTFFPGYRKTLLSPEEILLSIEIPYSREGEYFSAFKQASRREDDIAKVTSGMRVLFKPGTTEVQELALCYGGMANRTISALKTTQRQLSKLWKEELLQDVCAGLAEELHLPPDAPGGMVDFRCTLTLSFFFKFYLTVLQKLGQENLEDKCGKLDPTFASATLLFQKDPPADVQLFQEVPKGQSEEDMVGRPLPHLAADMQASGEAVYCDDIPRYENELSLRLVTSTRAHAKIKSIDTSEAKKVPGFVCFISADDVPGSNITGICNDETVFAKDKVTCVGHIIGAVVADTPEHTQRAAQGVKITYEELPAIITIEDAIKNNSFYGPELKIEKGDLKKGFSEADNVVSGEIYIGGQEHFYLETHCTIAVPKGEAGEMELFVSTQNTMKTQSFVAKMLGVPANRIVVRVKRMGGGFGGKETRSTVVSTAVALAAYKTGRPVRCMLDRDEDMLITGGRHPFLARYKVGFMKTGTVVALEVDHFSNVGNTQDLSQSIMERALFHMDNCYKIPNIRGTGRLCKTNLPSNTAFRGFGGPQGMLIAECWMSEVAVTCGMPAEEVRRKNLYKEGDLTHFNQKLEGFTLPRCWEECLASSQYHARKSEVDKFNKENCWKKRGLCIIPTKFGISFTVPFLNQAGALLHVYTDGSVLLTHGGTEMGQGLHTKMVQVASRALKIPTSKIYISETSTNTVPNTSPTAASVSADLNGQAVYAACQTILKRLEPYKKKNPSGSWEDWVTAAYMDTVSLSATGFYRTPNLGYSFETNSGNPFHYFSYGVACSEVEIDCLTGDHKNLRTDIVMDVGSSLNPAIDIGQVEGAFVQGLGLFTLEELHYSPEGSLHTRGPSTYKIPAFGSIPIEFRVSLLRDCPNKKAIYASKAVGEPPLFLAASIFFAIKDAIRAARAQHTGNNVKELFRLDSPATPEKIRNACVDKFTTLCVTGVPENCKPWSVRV

Series [1] is described as follows: Pharmacokinetic evaluation in SD rats. In kind it is in vivo. The procedure: SD rats were fasted for 15 h overnight and grouped randomly according to body weight. The test compound was dissolved in a solution of 5% DMSO+5% Solutol+90% Saline. For intravenous administration of the test group, the animals were administered with a dose of 1 mg/kg; for oral administration of the test group, the animals were administered with a dose of 5 mg/kg. Then venous blood (approximately 0.2 mL) was collected at the time point of 0, 0.083 (only intravenous injection group), 0.25, 0.5, 1.0, 2.0, 5.0, 7.0 and 24 h after drug administration. The venous blood was placed in EDTAK2 anticoagulant tube and centrifuged at 11000 rpm for 2 min. Plasma was collected and stored at −20° C. or at −70° C. until LC/MS/MS analysis. The drug concentration in plasma was measured at each time point, and pharmacokinetic parameters were calculated according to the curve of drug concentration-time.

[2] abbreviates: rat, plasma, SD rats, iv, 1 mg/kg.
The mark [3] stands for this setting: rat, plasma, SD rats, iv, 1 mg/kg, read-out: Cmax.
The mark [4] stands for this setting: rat, plasma, SD rats, po, 5 mg/kg.

The structures appear in SMILES notation. Read-outs that look alike come from different tables or passages of the source.

Regarding `N#Cc1cc(-c2ccc(C(=O)O)c(O)c2)c2ccsc2c1` [Example 31, 4-(6-cyanobenzo[b]thiophen-4-yl)-2-hydroxybenzoic Acid], the IC50 came to 45 nM against hURAT1 and 57.8 nM on xanthine oxidase.

As for `N#Cc1cc(-c2ccc(C(=O)O)c(O)c2)c2[nH]ccc2c1` [Example 7, 4-(5-cyano-1H-indol-7-yl)-2-hydroxybenzoic Acid], the values for the IC50 on hURAT1 and against xanthine oxidase were 2880 nM and 10.9 nM, respectively.

As to `N#Cc1cc(-c2ccc(C(=O)O)c(O)c2)c2occc2c1` [Example 1, 4-(5-cyanobenzofuran-7-yl)-2-hydroxybenzoic Acid], the IC50 against hURAT1 came out at 140 nM. This molecule had a half-maximal inhibitory concentration (IC50) at xanthine oxidase of 19.6 nM. Moreover, in series [1] (SD, rat, in vivo), the F came out at 131%. In series [1] (SD, rat, in vivo, iv, 1 mg/kg), the AUClast came to 6860 ng·h/mL, the Vd is 0.399 L/kg and the clearance was found to be 2.4 mL/min/kg. In series [1] (SD, rat, in vivo, po, 5 mg/kg), this molecule registered an AUClast of 44400 ng·h/mL and a T1/2 of 3.45 h. Further, in series [1] (setting [2]), the AUC(0-inf) came to 7000 ng·h/mL, the mean residence time MRT inf amounted to 2.84 h, the time of peak concentration (Tmax) turned out to be 0.083 h and the half-life was 1.53 h. The Cmax in series [1] (setting [3]) turned out to be 6030 ng/mL. In series [1] (setting [4]), the AUC(0-inf) worked out at 45800 ng·h/mL, the MRT inf was found to be 5.98 h and the Tmax was 0.417 h.

`N#Cc1cc(-c2ccc(C(=O)O)c(O)c2)c2oc(Cl)cc2c1` [Example 40, 4-(2-chloro-5-cyanobenzofuran-7-yl)-2-hydroxybenzoic Acid] had an IC50 against hURAT1 of 30 nM. In addition, on xanthine oxidase, the IC50 came to 53.6 nM. Also, the F in series [1] (SD, rat, in vivo) is given as 94%. In series [1] (SD, rat, in vivo, iv, 1 mg/kg), this molecule displayed an AUClast of 5480 ng·h/mL, a Cl of 2.77 mL/min/kg and a Vd of 0.401 L/kg. In addition, in series [1] (SD, rat, in vivo, po, 5 mg/kg), the AUClast was 28100 ng·h/mL, the highest level (Cmax) was 3700 ng/mL and the T1/2 worked out at 3.05 h. In series [1] (setting [2]), the AUC(0-inf) was determined as 6020 ng·h/mL, the MRT inf was determined as 2.42 h, the Tmax is 0.083 h and the half-life was 2.33 h. Moreover, the Cmax in series [1] (setting [3]) is 4090 ng/mL. In series [1] (setting [4]), the AUC(0-inf) came out at 28200 ng·h/mL, the mean residence time MRT inf worked out at 4.95 h and the Tmax was 0.5 h.

`N#Cc1cc(-c2ccc(C(=O)O)c(O)c2)c2oc(F)cc2c1` [Example 29, 4-(5-cyano-2-fluorobenzofuran-7-yl)-2-hydroxybenzoic Acid] had an IC50 on hURAT1 of 38 nM. At xanthine oxidase, this molecule yielded an IC50 of 34.6 nM. Further, the F in series [1] (SD, rat, in vivo) was found to be 145%. In series [1] (SD, rat, in vivo, iv, 1 mg/kg), this molecule showed an AUClast of 10900 ng·h/mL, a Cl of 1.51 mL/min/kg and a Vd of 0.311 L/kg. For the same molecule, in series [1] (SD, rat, in vivo, po, 5 mg/kg), the AUClast was determined as 81700 ng·h/mL and the T1/2 came to 2.84 h. Further, in series [1] (setting [2]), the AUC(0-inf) is 11300 ng·h/mL, the MRT inf was 3.49 h, the Tmax is 0.083 h and the half-life is 2.76 h. Also, in series [1] (setting [3]), the peak concentration (Cmax) was 4540 ng/mL. Also, in series [1] (setting [4]), the AUC(0-inf) turned out to be 82100 ng·h/mL, the MRT inf came to 3.8 h and the Tmax was determined as 1.33 h.

Consider `N#Cc1cc2c(c(-c3ccc(C(=O)O)c(O)c3)c1)OCC2` [Example 4, 4-(5-cyano-2,3-dihydrobenzofuran-7-yl)-2-hydroxybenzoic Acid], for which the values for the half-inhibitory concentration (IC50) against hURAT1 and against xanthine oxidase were 499 nM and 60.4 nM, respectively.

In series [1] (SD rats, po 5 mg/kg vs iv 1 mg/kg), `N#Cc1cc(-c2ccc(C(=O)O)c(O)c2)c2ccccc2c1` [Example 2, 4-(3-cyanonaphthalene-1-yl)-2-hydroxybenzoic Acid] yielded an F of 74.9%. Besides, in series [1] (setting [2]), the AUC(0-inf) turned out to be 2210 ng·h/mL, the AUC(0-t) worked out at 2170 ng·h/mL, the mean residence time MRT inf amounted to 1.86 h and the Tmax came out at 0.083 h. This molecule had a half-life in series [1] (setting [2]) of 3.1 h. Further, the clearance in series [1] (rat, plasma, SD rats, iv, 1 mg/kg, read-out: Cl) is 7.59 mL/min/kg. In addition, the Cmax in series [1] (setting [3]) is 4380 ng/mL. Also, the Vd in series [1] (rat, plasma, SD rats, iv, 1 mg/kg, read-out: Vss) is 0.828 L/kg. Also, in series [1] (setting [4]), the AUC(0-inf) is 8140 ng·h/mL, the AUC(0-t) worked out at 8130 ng·h/mL, the MRT inf came to 1.5 h and the Tmax is 0.417 h. In addition, in series [1] (setting [4]), the half-life is 3.86 h. In addition, the Cmax in series [1] (rat, plasma, SD rats, po, 5 mg/kg, read-out: Cmax) amounted to 6290 ng/mL.

For `N#Cc1cc(-c2ccc(C(=O)O)c(O)c2)c2ccoc2c1` [Example 21, 4-(6-cyanobenzofuran-4-yl)-2-hydroxybenzoic Acid], the results for the IC50 at hURAT1 and against xanthine oxidase were 172 nM and 39.5 nM, respectively.
